Here are results for 17 compounds from PubChem BioAssay AID256 (DTP/NCI, 2004).

Structures are written as SMILES. Inconclusive results and toxic doses are left out.

This experiment deals with CD2F1 mice, L1210 leukemia ip, survival T/C. In words: NCI In Vivo Anticancer Drug Screen. Data for tumor model L1210 Leukemia (intraperitoneal) in CD2F1 (CDF1) mice. The settings on record: higher = longer survival. In outline:
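Transplantable tumor in mice; compound-treated vs vehicle-treated groups. Read-out = treated/control ratio of the measured endpoint.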

Where [1] appears, read: endpoint: mean survival time, dose: 100.0 mg/kg/injection, schedule: Q01DX009 (ip), vehicle: saline with Tween-80.
[2] abbreviates: endpoint: mean survival time, dose: 100.0 mg/kg/injection, schedule: Q04DX003 (ip), vehicle: saline with Tween-80.
[3] abbreviates: endpoint: mean survival time, dose: 200.0 mg/kg/injection, schedule: Q01DX009 (ip), vehicle: saline with Tween-80.
The mark [4] stands for this setting: endpoint: mean survival time, dose: 200.0 mg/kg/injection, schedule: Q04DX003 (ip), vehicle: saline with Tween-80.
The mark [5] stands for this setting: endpoint: mean survival time, dose: 400.0 mg/kg/injection, schedule: Q04DX003 (ip), vehicle: saline with Tween-80.

Consider `c1ccc2c([Si](O[Si](c3cccc4ccccc34)C3CCCCC3)C3CCCCC3)cccc2c1`, for which the T/C is, setting by setting: under setting [1], 100 % of control; under setting [2], 93 % of control; under setting [3], 91 % of control; under setting [4], 91 % of control; (endpoint: mean survival time, dose: 400.0 mg/kg/injection, schedule: Q01DX009 (ip), vehicle: saline with Tween-80) 88 % of control.

For `CC(=O)Nc1c(N)ncnc1N`, the T/C reads like this: under setting [2], 90 % of control; under setting [4], 93 % of control; under setting [5], 98 % of control.

For `CO[C@@]12[C@@H]3N[C@@H]3CN1C1=C(C(=O)C(NCc3ccco3)=C(C)C1=O)[C@@H]2COC(N)=O`, the T/C (endpoint: mean survival time, dose: 1.5 mg/kg/injection, schedule: Q01DX001 (ip), vehicle: distilled water + Tween-80) was 113 % of control; the T/C (endpoint: mean survival time, dose: 3.0 mg/kg/injection, schedule: Q01DX001 (ip), vehicle: distilled water + Tween-80) is 120 % of control; the T/C (endpoint: mean survival time, dose: 24.0 mg/kg/injection, schedule: Q01DX001 (ip), vehicle: distilled water + Tween-80) was 156 % of control; the T/C (endpoint: mean survival time, dose: 36.0 mg/kg/injection, schedule: Q01DX001 (ip), vehicle: distilled water + Tween-80) was 108 % of control.

Regarding `BrCc1c2ccccc2c(CBr)c2c1ccc1ccccc12`, the T/C is, setting by setting: (endpoint: mean survival time, dose: 25.0 mg/kg/injection, schedule: Q04DX002 (ip), vehicle: carboxymethylcellulose (CMC)) 105 % of control; (endpoint: mean survival time, dose: 50.0 mg/kg/injection, schedule: Q04DX002 (ip), vehicle: carboxymethylcellulose (CMC)) 117 % of control; (endpoint: mean survival time, dose: 100.0 mg/kg/injection, schedule: Q04DX002 (ip), vehicle: Klucel (hydroxypropylcellulose) (HPC)) 97 % of control; (endpoint: mean survival time, dose: 100.0 mg/kg/injection, schedule: Q04DX002 (ip), vehicle: carboxymethylcellulose (CMC)) 113 % of control; (endpoint: mean survival time, dose: 200.0 mg/kg/injection, schedule: Q04DX002 (ip), vehicle: Klucel (hydroxypropylcellulose) (HPC)) 117 % of control.

In the case of `CC(=O)OCC1OC(OC2C(COC(C)=O)OC(Sc3ccc(C)cc3)C(OC(C)=O)C2OC(C)=O)C(OC(C)=O)C(OC(C)=O)C1OC(C)=O` (stereo unspecified), the T/C reads like this: under setting [2], 97 % of control; under setting [4], 91 % of control; under setting [5], 94 % of control.

As for `O=C1C=CC(=Nc2ccc(O)cc2)O1`, the T/C reads like this: (endpoint: mean survival time, dose: 5.0 mg/kg/injection, schedule: Q01DX009 (ip), vehicle: saline with Tween-80) 100 % of control; (endpoint: mean survival time, dose: 10.0 mg/kg/injection, schedule: Q01DX009 (ip), vehicle: saline with Tween-80) 94 % of control; (endpoint: mean survival time, dose: 20.0 mg/kg/injection, schedule: Q01DX009 (ip), vehicle: saline with Tween-80) 104 % of control.

Take `Oc1ccc2c3c1OC1C(O)C=CC4C(C2)NCCC341` (stereo unspecified): the T/C (endpoint: mean survival time, dose: 25.0 mg/kg/injection, schedule: Q04DX003 (ip), vehicle: DMSO) was 95 % of control; the T/C (endpoint: mean survival time, dose: 50.0 mg/kg/injection, schedule: Q04DX003 (ip), vehicle: DMSO) is 95 % of control; the T/C (endpoint: mean survival time, dose: 100.0 mg/kg/injection, schedule: Q04DX003 (ip), vehicle: DMSO) is 106 % of control.

On to `COc1cc2c(c(OC)c1OC)-c1cc3c(cc1[C@@H](OC(C)=O)[C@@H]1COC(=O)[C@H]1C2)OCO3`, for which the T/C runs as follows: (endpoint: mean survival time, dose: 1.25 mg/kg/injection, schedule: Q01DX009 (ip), vehicle: Klucel (hydroxypropylcellulose) (HPC)) 95 % of control; (endpoint: mean survival time, dose: 2.5 mg/kg/injection, schedule: Q01DX009 (ip), vehicle: Klucel (hydroxypropylcellulose) (HPC)) 103 % of control; (endpoint: mean survival time, dose: 5.0 mg/kg/injection, schedule: Q01DX009 (ip), vehicle: Klucel (hydroxypropylcellulose) (HPC)) 97 % of control; (endpoint: mean survival time, dose: 10.0 mg/kg/injection, schedule: Q01DX009 (ip), vehicle: Klucel (hydroxypropylcellulose) (HPC)) 112 % of control.

In the case of `CC(=O)Nc1cccc(C)n1`, the T/C (endpoint: mean survival time, dose: 75.0 mg/kg/injection, schedule: Q01DX001 (ip), vehicle: saline) is 98 % of control and the T/C (endpoint: mean survival time, dose: 150.0 mg/kg/injection, schedule: Q01DX001 (ip), vehicle: saline) is 98 % of control.

In the case of `CCOC(=O)C1C(=O)N(c2ccccc2)C(=O)N1c1ccccc1` (stereo unspecified), the T/C reads like this: (endpoint: mean survival time, dose: 12.5 mg/kg/injection, schedule: Q01DX009 (ip), vehicle: other) 89 % of control; (endpoint: mean survival time, dose: 25.0 mg/kg/injection, schedule: Q01DX009 (ip), vehicle: other) 89 % of control; (endpoint: mean survival time, dose: 50.0 mg/kg/injection, schedule: Q01DX009 (ip), vehicle: other) 103 % of control; (endpoint: mean survival time, dose: 100.0 mg/kg/injection, schedule: Q01DX009 (ip), vehicle: other) 93 % of control; (endpoint: mean survival time, dose: 200.0 mg/kg/injection, schedule: Q01DX009 (ip), vehicle: other) 98 % of control.

On to `CC(=O)OCCN1C(=O)c2ccccc2C1=O`, for which the T/C was 97 % of control (endpoint: mean survival time, dose: 100.0 mg/kg/injection, schedule: Q04DX003 (ip), vehicle: Klucel (hydroxypropylcellulose) (HPC)); 94 % of control (endpoint: mean survival time, dose: 200.0 mg/kg/injection, schedule: Q04DX003 (ip), vehicle: Klucel (hydroxypropylcellulose) (HPC)); 102 % of control (endpoint: mean survival time, dose: 400.0 mg/kg/injection, schedule: Q04DX003 (ip), vehicle: Klucel (hydroxypropylcellulose) (HPC)).

For the compound `O=P1(N(CCCl)CCCl)NCCC2(O1)C1CC3CC(C1)CC2C3` (stereo unspecified), the T/C reads like this: (endpoint: mean survival time, dose: 15.6 mg/kg/injection, schedule: Q01DX001 (ip), vehicle: distilled water + Tween-80) 97 % of control; (endpoint: mean survival time, dose: 31.3 mg/kg/injection, schedule: Q01DX001 (ip), vehicle: distilled water + Tween-80) 96 % of control; (endpoint: mean survival time, dose: 62.5 mg/kg/injection, schedule: Q01DX001 (ip), vehicle: distilled water + Tween-80) 99 % of control; (endpoint: mean survival time, dose: 125.0 mg/kg/injection, schedule: Q01DX001 (ip), vehicle: distilled water + Tween-80) 86 % of control; (endpoint: mean survival time, dose: 500.0 mg/kg/injection, schedule: Q01DX001 (ip), vehicle: distilled water + Tween-80) 86 % of control.

As to `Cc1ccccc1N1C(=O)CSC1=S`, the T/C under setting [1] was 98 % of control and the T/C under setting [3] was 106 % of control.

Turning to `O.O.O=C(O)C(O)C(O)C(OC1OC(CO)C(O)C(O)C1O)C(O)CO.O=C(O)C(O)C(O)C(OC1OC(CO)C(O)C(O)C1O)C(O)CO.[NH-]C1CCCCC1[NH-].[Pt+2]` (stereo unspecified), the T/C reads like this: (endpoint: median survival time, dose: 3.12 mg/kg/injection, schedule: Q04DX003 (ip), vehicle: saline) 100 % of control; (endpoint: median survival time, dose: 6.25 mg/kg/injection, schedule: Q04DX003 (ip), vehicle: saline) 100 % of control; (endpoint: median survival time, dose: 12.5 mg/kg/injection, schedule: Q04DX003 (ip), vehicle: saline) 102 % of control; (endpoint: median survival time, dose: 25.0 mg/kg/injection, schedule: Q04DX003 (ip), vehicle: saline) 101 % of control; (endpoint: median survival time, dose: 50.0 mg/kg/injection, schedule: Q04DX003 (ip), vehicle: saline) 98 % of control; (endpoint: median survival time, dose: 100.0 mg/kg/injection, schedule: Q04DX003 (ip), vehicle: saline) 101 % of control. For the same compound, the T/C (endpoint: median survival time, dose: 200.0 mg/kg/injection, schedule: Q04DX003 (ip), vehicle: saline) was 112 % of control.

With `CC(C)(C)N[P+](Cc1ccc(C[P+](NC(C)(C)C)(NC(C)(C)C)c2ccccc2)cc1)(NC(C)(C)C)c1ccccc1`, the T/C (endpoint: mean survival time, dose: 1.56 mg/kg/injection, schedule: Q04DX003 (ip), vehicle: saline) was 109 % of control and the T/C (endpoint: mean survival time, dose: 3.13 mg/kg/injection, schedule: Q04DX003 (ip), vehicle: saline) is 95 % of control.

Consider `O=N[O-].O=N[O-].[Co].[NH2-].[NH2-].[NH2-].[NH2-]`, for which the T/C (endpoint: mean survival time, dose: 25.0 mg/kg/injection, schedule: Q04DX002 (ip), vehicle: saline with Tween-80) is 93 % of control; the T/C (endpoint: mean survival time, dose: 50.0 mg/kg/injection, schedule: Q04DX002 (ip), vehicle: saline with Tween-80) is 101 % of control; the T/C (endpoint: mean survival time, dose: 100.0 mg/kg/injection, schedule: Q04DX002 (ip), vehicle: saline with Tween-80) was 101 % of control.

As to `Cc1cccc(C)c1N=C(c1ccccc1)N(O)c1ccccc1`, the T/C reads like this: (endpoint: mean survival time, dose: 1.88 mg/kg/injection, schedule: Q01DX009 (ip), vehicle: saline with Tween-80) 101 % of control; (endpoint: mean survival time, dose: 1.88 mg/kg/injection, schedule: Q04DX003 (ip), vehicle: saline) 93 % of control; (endpoint: mean survival time, dose: 3.75 mg/kg/injection, schedule: Q01DX009 (ip), vehicle: saline with Tween-80) 95 % of control; (endpoint: mean survival time, dose: 3.75 mg/kg/injection, schedule: Q04DX003 (ip), vehicle: saline) 96 % of control; (endpoint: mean survival time, dose: 7.5 mg/kg/injection, schedule: Q01DX001 (ip), vehicle: saline) 103 % of control; (endpoint: mean survival time, dose: 7.5 mg/kg/injection, schedule: Q01DX009 (ip), vehicle: saline with Tween-80) 98 % of control. In addition, the T/C (endpoint: mean survival time, dose: 7.5 mg/kg/injection, schedule: Q04DX003 (ip), vehicle: saline) is 98 % of control.
